Values after ≈ are worked out from the molar mass of the structure shown.
Columns and labels:
phospholipase = assay: Phospholipase inhibition in other cell lines; format: cell-based; conditions: for IC50: read-out: IC50 for phospholipase inhibition, other cell lines
CXCL8 = assay: LPS-induced CXCL8 (IL-8) production in PMA-differentiated U937 cells (ELISA); format: cell-based, human; conditions: for inhibition of CXCL8 (IL-8) production (in words): solithromycin and telithromycin at 100 μM, clarithromycin at 333 μM
Experimental: (§1) EXAMPLE. […] Cells. The human monocytic cell line U937 was obtained from the American Type Culture Collection (ATCC, Rockville, Md.). PBMCs from COPD patients were obtained from Brompton hospital and separated by AccuSPIN (Sigma-Aldrich). […] U937 cells were differentiated into adherent macrophage-like morphology by exposure to PMA (50 ng/ml) for 48 h in complete growth medium. Cell viability was assessed microscopically by trypan blue staining. Cell toxicity was determined by MTT assay as needed. This study was approved by the ethics committee of the Royal Brompton Hospitals, and all subjects gave written informed consent. Cytokine ELISA. TNFα and IL-8 concentrations in the supernatant of cell cultures were determined by sandwich ELISA according to the manufacturer's instructions (R&D Systems Europe, Abingdon, UK). Statistical analysis. The results were expressed as the mean±SEM. Comparisons of data in two groups were performed using the Student's t test or the Wilcoxon signed rank test. Multiple comparisons were made by one-way ANOVA with post hoc test (Dunnett's) as appropriate. The difference was considered significant at p<0.05. […] Anti-inflammatory effects of solithromycin in U937 cells.

[1] = test system: Haemophilus parainfluenzae; assay: MIC against Haemophilus parainfluenzae; format: cell-based; conditions: N 11
MMP9 = MMP9 activity in PMA-stimulated U937 cells (gelatin zymography); format: cell-based, human; conditions: PMA stimulation
Experimental: EXAMPLE. […] Cells. The human monocytic cell line U937 was obtained from the American Type Culture Collection (ATCC, Rockville, Md.). PBMCs from COPD patients were obtained from Brompton hospital and separated by AccuSPIN (Sigma-Aldrich). […] U937 cells were differentiated into adherent macrophage-like morphology by exposure to PMA (50 ng/ml) for 48 h in complete growth medium. Cell viability was assessed microscopically by trypan blue staining. Cell toxicity was determined by MTT assay as needed. This study was approved by the ethics committee of the Royal Brompton Hospitals, and all subjects gave written informed consent. Zymography. MMP9 enzyme activity was measured by gelatin zymography. […] After electrophoresis, gels were incubated and rinsed with Novex® zymogram renaturing buffer (Invitrogen) for 30 min at room temperature. The gels were then rinsed in Novex® zymogram developing buffer (Invitrogen) for 30 min at room temperature prior to overnight incubation in the developing buffer at 37° C. After incubation, the gels were stained using a Colloidal Blue Staining Kit (Invitrogen) to visualize the zymogen bands. Statistical analysis. The results were expressed as the mean±SEM. Comparisons of data in two groups were performed using the Student's t test or the Wilcoxon signed rank test. Multiple comparisons were made by one-way ANOVA with post hoc test (Dunnett's) as appropriate. The difference was considered significant at p<0.05.

Mycoplasma hominis = assay: MIC against Mycoplasma hominis; format: cell-based; conditions: N 13
TNFα = assay: LPS-induced TNFα production in PMA-differentiated U937 cells (ELISA); format: cell-based, human; conditions: for inhibition of TNFα production (in words): solithromycin and telithromycin at 100 μM, clarithromycin at 333 μM
Experimental: as §1

[2] = test system: Immortalized human meibomian gland epithelial cells (HMGECs); assay: HMGEC lysosome and neutral lipid accumulation, differentiation and proliferation; format: cell-based; conditions: meibomian gland epithelial cells
Experimental: EXAMPLE. Immortalized human meibomian gland epithelial cells (HMGECs) are cultured in the presence of vehicle or test compound, such as Soli (2, 10, or 20 μg/ml) for 1 to 7 days under proliferating (keratinocyte serum-free medium; KSFM) or differentiating (DMEM/F12 plus 10% fetal bovine serum) conditions. A positive control (epidermal growth factor and bovine pituitary extract for proliferation; Azi for differentiation) and a negative control (media only) are included with the experiments. Additional details are described in JAMA Ophthalmol 132(2): 226-228 (Feb. 1, 2014) and Current Eye Research, 1-6 (2017), each of which is incorporated herein by reference.
HMGECs are evaluated for cell number, neutral lipid content (LipidTox) and lysosome accumulation (LysoTracker). […] Strong lysosomal effects are observed with the 10 μg/ml dose of Soli (relative stimulation=30), on the first day of dosing, and those effects are statistically different (p<0.01) from the control group (relative stimulation=13). In contrast, the 10 μg/m1Azi dose is not statistically different from the control group (relative stimulation=18) until day 3. […] Compounds described herein, such a Soli, affect lysosome and lipid accumulation and differentiation of HMGECs. The effect of Soli on lysosome appearance is faster than that of Azi.

P. acnes = assay: MIC against P. acnes; format: cell-based; conditions: for MIC50 / MIC90: Cutibacterium acnes

With `CC[C@H]1OC(=O)[C@H](C)[C@@H](O[C@H]2C[C@@](C)(OC)[C@@H](O)[C@H](C)O2)[C@H](C)[C@@H](O[C@@H]2O[C@H](C)C[C@H](N(C)C)[C@H]2O)[C@](C)(O)C[C@@H](C)CN(C)[C@H](C)[C@@H](O)[C@]1(C)O` [Azithromycin, azithromycin] the “reversibility of phospholipase inhibition” value (phospholipase; after dosing is stopped) was “remains unchanged for several days after dosing is stopped”, the IC50 (phospholipase) was 300 µM and the “inhibition of CXCL8 (IL-8) production (in words)” value (from here on “inhibition of CXCL8”) (CXCL8) was “did not inhibit”. The “MIC Range” value [1] was 0.5-2^ μg/mL, the “inhibitory effects on MMP9 activity, lower than solithromycin” value (MMP9) was 10 fold and the “MIC Range” value (Mycoplasma hominis) was 0.5-4^ μg/mL. The “inhibition of TNFα production (in words)” value (TNFα) was “did not inhibit”.
For `CC[C@H]1OC(=O)[C@H](C)[C@@H](O[C@H]2C[C@@](C)(OC)[C@@H](O)[C@H](C)O2)[C@H](C)[C@@H](O[C@@H]2O[C@H](C)C[C@H](N(C)C)[C@H]2O)[C@](C)(OC)C[C@@H](C)C(=O)[C@H](C)[C@@H](O)[C@]1(C)O` [Clarithromycin, clarithromycin], the “meibomian gland differentiation (in words)” value [2] was “do not cause clinically significant meibomian gland differentiation”, the IC50 (CXCL8; Homo sapiens, U-937, LPS, PMA-differentiated U937 cells, read-out: IC50 on CXCL8 release) was 506 ± 44 µM and the “inhibition of CXCL8” value (CXCL8) was “modest effects”. The “inhibitory effects on MMP9 activity, lower than solithromycin” value (MMP9) was 10 fold, the IC50 (TNFα; Homo sapiens, U-937, LPS, PMA-differentiated U937 cells, read-out: IC50 on TNFα release) was 426 ± 63.9 µM and the “inhibition of TNFα production (in words)” value (TNFα) was “modest effects”.
In the case of `CCCCCCCCCC(=O)N[C@@H](Cc1c[nH]c2ccccc12)C(=O)N[C@H](CC(N)=O)C(=O)N[C@@H](CC(=O)O)C(=O)N[C@@H]1C(=O)NCC(=O)N[C@@H](CCCN)C(=O)N[C@@H](CC(=O)O)C(=O)N[C@H](C)C(=O)N[C@@H](CC(=O)O)C(=O)NCC(=O)N[C@H](CO)C(=O)N[C@@H]([C@H](C)CC(=O)O)C(=O)N[C@@H](CC(=O)c2ccccc2N)C(=O)O[C@@H]1C` [Daptomycin], the MIC50 (P. acnes; P. acnes) is reported as 2 µg/mL (≈ 1.23 µM), the MIC90 (P. acnes; P. acnes (51 species)) is reported as 4 µg/mL (≈ 2.47 µM) and the “MIC Range” value (P. acnes; P. acnes (51 species)) is reported as 0.5 to 8 µg/mL.
For `CC[C@H]1OC(=O)[C@H](C)[C@@H](O[C@H]2C[C@@](C)(OC)[C@@H](O)[C@H](C)O2)[C@H](C)[C@@H](O[C@@H]2O[C@H](C)C[C@H](N(C)C)[C@H]2O)[C@](C)(O)C[C@@H](C)C(=O)[C@H](C)[C@@H](O)[C@]1(C)O` [Erythromycin], the “meibomian gland differentiation (in words)” value [2] was “do not cause clinically significant meibomian gland differentiation”, the IC50 (phospholipase) was over 400 µM and the “inhibition of CXCL8” value (CXCL8) was “did not inhibit”. For the same molecule, the “effect on MMP9 activity (in words)” value (MMP9) was “no effect” and the “inhibition of TNFα production (in words)” value (TNFα) was “did not inhibit”.
`CC[C@H]1OC(=O)[C@H](C)C(=O)[C@H](C)[C@@H](O[C@@H]2O[C@H](C)C[C@H](N(C)C)[C@H]2O)[C@](C)(OC)C[C@@H](C)C(=O)[C@H](C)[C@H]2N(CCCCn3cnc(-c4cccnc4)c3)C(=O)O[C@]12C` [Telithromycin] was tested, and the “meibomian gland differentiation (in words)” value [2] was “do not cause clinically significant meibomian gland differentiation”, the “inhibition of CXCL8” value (CXCL8) was “did not inhibit” and the “inhibition of TNFα production (in words)” value (TNFα) was “did not inhibit”.
For `CN[C@H](CC(C)C)C(=O)N[C@H]1C(=O)N[C@@H](CC(N)=O)C(=O)N[C@H]2C(=O)N[C@H]3C(=O)N[C@H](C(=O)N[C@H](C(=O)O)c4cc(O)cc(O)c4-c4cc3ccc4O)[C@H](O)c3ccc(c(Cl)c3)Oc3cc2cc(c3O[C@@H]2O[C@H](CO)[C@@H](O)[C@H](O)[C@H]2O[C@H]2C[C@](C)(N)[C@H](O)[C@H](C)O2)Oc2ccc(cc2Cl)[C@H]1O` [Vancomycin], the MIC50 (P. acnes; P. acnes) was 1 µg/mL (≈ 0.69 µM), the MIC90 (P. acnes; P. acnes (51 species)) was 1 µg/mL (≈ 0.69 µM) and the “MIC Range” value (P. acnes; P. acnes (51 species)) was 0.12 to 1 µg/mL.
In the case of `CC[C@H]1OC(=O)[C@H](C)C(=O)[C@H](C)[C@@H](O[C@@H]2O[C@H](C)C[C@H](N(C)C)[C@H]2O)[C@](C)(OC/C=C/c2cnc3ccccc3c2)C[C@@H](C)C(=O)[C@H](C)[C@H]2NC(=O)O[C@@]21C` [cethromycin], the “meibomian gland differentiation (in words)” value [2] is reported as “do not cause clinically significant meibomian gland differentiation”.
In the case of Penicillin, the “MIC 50%” value (P. acnes; P. acnes) is reported as at most 0.03 µg/mL, the “MIC 90%” value (P. acnes; P. acnes (51 species)) is reported as 0.06 µg/mL and the “MIC Range” value (P. acnes; P. acnes (51 species)) is reported as ≤0.03-1^ μg/ml.
